Test results from patent publication US8124343B2, “IRE-1α substrates” (MannKind Corporation, priority 2005, dated 2012).
{BHQ1} = Black Hole Quencher-1 (BHQ-1) label; {FAM} = fluorescein (FAM) label

Key:
Format in all cases: biochemical
[1] = target: T1, IRE-1α (Homo sapiens, UniProt O75460); test: Competition assay with 15 base wild-type dual-labeled substrate as readout
T1 construct: GST (N, cleaved yes); made in house; host or cells: baculovirus-infected insect cells
Method: Increasing amounts of either unlabeled wild-type (SEQ ID NO:1) or mutant 33 base substrate (SEQ ID NO:2) were incubated in the standard reaction as described in Example 2 for 1 hour at 30° C.
X-axis, fluorescence intensity; columns of Y axis, from left to right: 1, wild-type 15 base FAM BHQ-1™ substrate, no IRE-1α, and no competitor (background signal); 2, wild-type 15 base FAM BHQ-1™ substrate, no IRE-1α (background signal) plus 50 fold molar excess of unlabeled wild-type 33 base substrate (control for possible quenching of fluorophore with excess and possible hybridizing to the longer 33 base substrate); 3, wild-type 15 base FAM BHQ-1™ substrate with IRE-1α and an equivalent amount of wild-type 33 base substrate; 4, same as 3 with 2× wild-type 33 base substrate; 5, same as 3 with 5× wild-type 33 base substrate; 6, same as 3 with 10× wild-type 33 base substrate; 7, same as 3 with 20× wild-type 33 base substrate; 8, same as 3 with 50× wild-type 33 base substrate; 9, wild-type 15 base FAM BHQ-1™ substrate no IRE-1α (background signal) plus 50 fold molar excess of unlabeled mutant 33 base substrate (control for possible quenching of fluorophore with excess and possible hybridizing to the longer 33 base substrate (essentially the same as 2); 10, wild-type 15 base FAM BHQ-1™ substrate with IRE-1α and an equivalent amount of mutant 33 base substrate; 11, same as 3 with 2×33 base mutant substrate; 12, same as 3 with 5×33 base mutant substrate; 13, same as 3 with 10×33 base mutant substrate; 14, same as 3 with 20×33 base mutant substrate; 15, same as 3 with 50×33 base mutant substrate; 16, wild-type 15 base FAM BHQ-1™ substrate with IRE-1α (positive control).

[2] = target: T1, IRE-1α; test: IRE-1α RNase activity assay, reaction products separated on denaturing gel
[3] = target: T1, IRE-1α; test: High-throughput screening assay of IRE-1α RNase activity; conditions: for fluorescence signal, average: 384-well plates
Method: Five μl of a reaction mixture comprising 1× reaction buffer (5× reaction buffer is 100 mM Hepes pH 7.5, 250 mM KOAc, 2.5 mM MgCl2), 3 mM DTT, and 0.4% polyethylene glycol water were added to each well of 384 well plates. Twenty-five nanoliters of a 1 mM test compound solution were added to test wells. Three μl of a […] IRE-1α preparation were added to each test well and to positive control wells (final concentration 5.82 ng/well). Negative control wells contained only reaction mixture and test compound.
After spinning the plates at 1200 rpm for 30 seconds, 3 μl of a 63 nM wild-type IRE-1α substrate or 3 μl of a 63 nM mutant IRE-1α substrate diluted to 48 nM were added to each well of a control plate. The plates were again spun at 1200 rpm for 30 seconds. Final concentrations for the assay were: 63 nM wild-type IRE-1α substrate (or 48 nM mutant IRE-α substrate), 5.82 ng IRE-1α protein, and 2.5 μM test compound.
The plates were covered with lids and incubated for one hour at 30° C. The plates were then transferred to an ACQUEST™ microplate reader. Data was analyzed using data analysis software. The percent activity of IRE-1α was calculated using the following equation: […]
A Beckman Biomek FX robot was used to load all components of the reaction into 384-well plates in the following order: buffer with test compound, IRE-1α, and substrate into 384-well plates. Controls with substrate alone and substrate with IRE-1α were used to calibrate signal to noise ratio and variability between wells (first two left hand rows respectively, in FIG. 6). The two far right lanes in FIG. 6 contain the mutant 15 base dual-labeled substrate with and without IRE-1α as a quality control check for RNase contamination.

[4] = target: T1, IRE-1α; test: Kinetics of IRE-1α-mediated substrate cleavage; conditions: 20 nM purified IRE-1α, 63 nM substrate, 60 minute incubation, 30° C.
Method: Kinetics of IRE-1α-mediated substrate cleavage were measured in an assay as described above using purified active IRE-1α and the wild-type 15 base FAM-BHQ-1™-labeled substrate. The plate was incubated at 30° C. and read every 5 minutes.
These conditions result in a signal of 60,000 units, which is approximately 75% of the full 80,000 unit signal.

[5] = with IRE-1α, no PEG, FIG. 3 lanes 3-4
[6] = with IRE-1α, with PEG, FIG. 3 lanes 7-8
[7] = with IRE-1α added, FIG. 3 lanes 13-14

T1 sequence (O75460 with tags, fused parts or gaps): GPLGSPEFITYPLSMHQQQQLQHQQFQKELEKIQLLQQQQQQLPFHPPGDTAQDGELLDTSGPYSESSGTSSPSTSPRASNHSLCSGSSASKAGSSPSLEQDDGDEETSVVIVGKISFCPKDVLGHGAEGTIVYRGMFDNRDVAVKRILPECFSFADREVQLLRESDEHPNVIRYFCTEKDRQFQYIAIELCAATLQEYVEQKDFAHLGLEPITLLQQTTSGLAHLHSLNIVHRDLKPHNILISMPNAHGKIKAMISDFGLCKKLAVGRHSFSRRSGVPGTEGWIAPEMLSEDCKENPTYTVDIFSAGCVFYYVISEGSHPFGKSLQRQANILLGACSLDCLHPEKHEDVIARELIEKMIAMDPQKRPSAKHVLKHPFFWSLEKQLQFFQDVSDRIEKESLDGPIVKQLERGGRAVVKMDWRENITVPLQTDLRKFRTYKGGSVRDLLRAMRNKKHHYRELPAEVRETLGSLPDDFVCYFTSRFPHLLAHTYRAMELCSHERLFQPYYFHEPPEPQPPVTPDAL

Substance | cleavage of substrate by IRE-1α (gel) [2, 5] | cleavage of substrate by IRE-1α (gel) [2, 6] | fluorescence signal, average ([3]; substrate alone (no IRE-1α)) | fluorescence signal, average ([3]; substrate and IRE-1α) | signal from cleaved FAM-BHQ1 labeled substrate (gel) [2, 7] | other results
5′-GGGUCUGCUGAGUCCGCAGCACUCAGAAGGCCC-3′ (chemistry not given here) [33 base wild-type substrate, 33 base wild-type stem-loop RNA substrate for IRE-1α] | cuts | cuts | – | – | – | inhibitory activity (fluorescence intensity) ([1]; 50-fold excess of unlabeled competitor, 1 hour at 30° C.): greater than 50%; competition with the 15 base IRE-1α substrate, inhibition of fluorescence intensity ([1]; ten-fold molar excess of unlabeled competitor, 1 hour at 30° C.): begins to compete; cleavage of substrate by IRE-1α (gel) ([2]; IRE-1α diluted 1:3, with PEG, FIG. 3 lane 9): cuts; cleavage of substrate by IRE-1α (gel) ([2]; IRE-1α diluted 1:12, with PEG, FIG. 3 lane 10): cuts; digestion of 33 base stem-loop substrate by IRE-1α (lower molecular weight band) ([2]; recombinant purified human IRE-1α, FIG. 3C): digested
5′-GGGUCUGCUGAGUCCCCAG-CACUCAGAAGGCCC-3′ (GGGUCUGCUGAGUCCCCAGCACUCAGAAGGCCC; chemistry not given here) [33 base mutant substrate] | does not cut | does not cut | – | – | – | inhibitory activity (fluorescence intensity) ([1]; similar concentrations (ten-fold to 50-fold excess) of unlabeled competitor): no inhibitory activity
5′-CAGUCCCCAGCACUG-3′ (chemistry not fully specified) [15 base mutant substrate, 15 base mutant substrate with 5′ FAM and 3′ BHQ-1 moieties] | – | – | 10393 | 10516 | no signal | –
5′-CAGUCCGCAGCACUG-3′ (5' {FAM}, 3' {BHQ1}, sugars by position and backbone not given here) [15 base wild-type substrate, 15 base wild-type substrate with 5′ FAM and 3′ BHQ-1 moieties] | – | – | 12305 | 50076 | signal | ratio of positive control over background ([3]; wild-type substrate and IRE-1α over substrate alone): 4.07; signal from cleaved FAM-BHQ1 labeled substrate (gel) ([2]; IRE-1α added diluted to 1:3, FIG. 3 lane 15): signal; signal ([4]; 10 μl reaction volume): 60,000 units; signal as share of the full 80,000 unit signal ([4]; 10 μl): approximately 75%
